Reference: EP1209147A1, “CARBOXYLIC ACID DERIVATIVES AND ADHESION MOLECULE INHIBITORS CONTAINING THE SAME AS THE ACTIVE INGREDIENT” (TORAY INDUSTRIES, INC., priority 1999, dated 2001)
Read-outs that look alike come from different tables or passages of the source.

Legend:
[1] = target: VLA-4-IgG chimeric protein (Homo sapiens, UniProt P05556+P13612); experiment: Inhibition of binding between CS-1 peptide and VLA-4-IgG chimeric protein
Description: The adhesion-inhibition activity of the compound of the present invention against VLA-4 may be examined by using an adhesion assay system in which the adhesion between VLA-4-expressing cells such as Ramos cells and Jurkat cells, and fibronectin or a fragment thereof, e.g., a peptide containing CS-1 sequence (Gly Pro Glu Ile Leu Asp Val Pro Ser Thr) (hereinafter referred to as "CS-1 peptide") immobilized on an immunoplate is measured. Alternatively, a binding assay system in which the binding of the VLA-4 protein to the fibronectin or a fragment thereof such as CS-1 peptide immobilized on an immunoplate is measured may be employed. In the present invention, the inhibition assay of the compound is preferably measured by a binding assay system which measures the binding between a chimeric protein of VLA-4 and immunoglobulin (VLA-4-IgG chimeric protein) and CS-1 peptide (Japanese patent application No. H9-234544), although the method of measuring the inhibition activity is not restricted to this method. The term "VLA-4-IgG chimeric protein" herein means the heterodimer composite molecule in which a chimeric protein between α4 of VLA-4 and immunoglobulin (hereinafter referred to as "VLAα4·IgG chimeric protein), and a chimeric protein between β1 of VLA-4 and immunoglobulin (hereinafter referred to as "VLAβ1·IgG chimeric protein) are associated. As the immunoglobulin, although heavy chain or light chain of IgG, IgM or the like may be employed, in the present invention, IgG1 heavy chain is used. When testing the inhibition activity of the compound, it is preferred to preliminarily mix the VLA-4-IgG chimeric protein and the test compound.
Effects of Compounds for Inhibition of Binding Between CS-1 Peptide and VLA-4-IgG
A conjugate between a peptide (Gys Leu His Gly Pro Glu Ile Leu Asp Val Pro Ser Thr) containing CS-1 sequence and rabbit IgG (Sigma) was prepared by the reported method (Humphries, M.J. et al. J. Biol.Chem., 262, 6886-6892 (1987)). The obtained conjugate was diluted with phosphate buffer (hereinafter referred to as "PBS(-)", NISSUI) and the resulting solution was placed in wells of a 96-well immunoplate (NUNC) in an amount of 100 µl/well, followed by leaving the solution to stand at 4°C for 16 hours to immobilize the conjugate.
Then each well was washed twice with PBS(-), and a PBS solution containing 1% BSA heat-treated at 80°C for 10 minutes was placed in each well in an amount of 300 µl/well. The immunoplate was left to stand at 4°C for 3 hours, and then the solution in each well was removed by aspiration.
After preliminarily allowing each compound to react with VLA-4-IgG chimeric protein (100 µl) at room temperature for 20 minutes, the resulting solution was allowed to react with CS-1 peptide in each well at 30°C for 3 hours. Thereafter, non-bound VLA-4-IgG chimeric protein was removed by aspiration and each well was washed twice with 0.1% BSA-containing TBS buffer (150 mM NaCl,25 mM Tris-HCI, 1 mM MnCl2 pH 7.4). To the bound VLA-4-IgG chimeric protein, biotin-labeled anti-human IgG antibody (Vector) as an primary antibody was added, and then avidin-labeled horse radish peroxidase (Sigma) as a secondary antibody was added, and the reaction was allowed to occur. After the reaction, o-phenylenediamine as a substrate was added to color the solution, and the absorbance at 490 nm was measured. From the absorbance, the binding-inhibition activity of each test compound was determined.

Auricular Edema Model = experiment: Auricular edema model (IgE anti-DNP passive sensitization, DNFB induction); type: in vivo, BLAB/c mouse; conditions: at a dose of not more than 150 mg/kg; topically or systemically, totally 3 times
Description: To each BLAB/c mouse (female, 7 weeks old, JAPAN CHARLES RIVER), mouse IgE anti-DNP antibody (5 mg/kg, SEIKAGAKU CORPORATION) was intravenously administered to passively sensitize the mouse. Twenty four hours later, 20 µl of 0.38% 2,4- dinitrofluorobenzene (DNFB, Aldrich) dissolved in acetone:olive oil (4:1) was applied to the auricle of the sensitized mouse to induce inflammation. The thickness of the auricle was measured until 24 hours after the induction with Digimatic Indicator (Mitutoyo) and the ear swelling rate was calculated according to the following equation: Ear Swelling Rate (%) = (A - B)/B x 100 [formula] • A: Thickness of right auricle at 24 hours after induction • B: Thickness of right auricle before induction
Twenty four hours after the induction, the auricle was cut off and fixed with formalin. After the fixation, continuous sections of the auricle were prepared and stained by Luna staining. The number of eosinophils in each section was counted and the total of them was defined as the number of eosinophils accumulated in the auricle.
Compound No. 140 used as the test compound was dissolved in physiological saline and the solution was intravenously administered totally 3 times, i.e., at the time of sensitization, at 8 hours and 24 hours after sensitization, at a dose of 400 mg/kg per each time. Further, to examine the effect of the compound when applied to the auricle, the compound was dissolved in ethanol, and the solution was applied to the auricle totally twice, i.e., at 8 hours after sensitization and at 1 hour before the induction, at a dose of 0.3 mg/ear. To the background group and the control group, physiological saline was intravenously administered and ethanol was applied, respectively. The experiment was carried out using 4 to 6 mice in each group. The results are shown in terms of mean ± standard error.
Twenty four hours after the induction, the auricle was cut off and fixed with formalin. After the fixation, continuous sections of the auricle were prepared and stained by Luna staining. The number of eosinophils in each section was counted. Compound No. 143 used as the test compound was dissolved in physiological saline and the solution was topically or systemically administered totally 3 times, i.e., at the time of sensitization, at 8 hours and 24 hours after sensitization. The experiment was carried out using 4 to 6 mice in each group. The results are shown in terms of mean ± standard error.

Mouse Asthma Model = experiment: Mouse asthma model (OVA/Alum sensitization, OVA inhalation, airway anaphylaxis and BALF eosinophils); type: in vivo, BLAB/c mouse; conditions: at a dose of not more than 150 mg/kg, topically or systemically
Description: A mixed solution containing aluminum hydroxide gel (Alum) on which ovalbumin (hereinafter "OVA") was adsorbed (20 ∝g OVA/2mg Alum/200 ∝l physiological saline) was intraperitoneally administered to each BLAB/c mouse (female, 7 weeks old, JAPAN CHARLES RIVER) at a dose of 200 ∝l ([…]) per time on DAY-1 and DAY-14 to sensitize the mouse. Then each mice was made to aspire 2% OVA dissolved in physiological saline on DAY-28, 29 and 30 to induce inflammation. Compound Nos. 143 and 236 used as the test compounds were dissolved in physiological saline and each solution was topically or systemically administered at 30 minutes before induction by OVA, and twice a day after induction.
On DAY-31, development of airway anaphylaxis was measured using a non-restrictive chamber (BUXCO). Then the bronchus of each mouse was incised and the bronchus and alveoli were washed (BAL) with 0.7 ml of physiological saline. After the washing, the washing fluid (BALF) of the bronchus and alveoli was recovered and centrifuged. The leukocytes contained in the BALF were subjected to site spin to prepare a smear specimen. After staining the specimen by May-Giemsa staining method, the leukocytes were grouped and counted under microscope to determine the number of eosinophils. The experiment was carried out using 6 to 8 mice in each group. The results are shown in terms of mean ± standard error.

[2] = binding of VLA-4-IgG chimeric protein to immobilized CS-1 peptide, compound preincubated 20 minutes, read-out: Inhibition Activity(IC50 : nM)

Chain of VLA-4-IgG chimeric protein (P13612 with tags, fused parts or gaps limits assumed): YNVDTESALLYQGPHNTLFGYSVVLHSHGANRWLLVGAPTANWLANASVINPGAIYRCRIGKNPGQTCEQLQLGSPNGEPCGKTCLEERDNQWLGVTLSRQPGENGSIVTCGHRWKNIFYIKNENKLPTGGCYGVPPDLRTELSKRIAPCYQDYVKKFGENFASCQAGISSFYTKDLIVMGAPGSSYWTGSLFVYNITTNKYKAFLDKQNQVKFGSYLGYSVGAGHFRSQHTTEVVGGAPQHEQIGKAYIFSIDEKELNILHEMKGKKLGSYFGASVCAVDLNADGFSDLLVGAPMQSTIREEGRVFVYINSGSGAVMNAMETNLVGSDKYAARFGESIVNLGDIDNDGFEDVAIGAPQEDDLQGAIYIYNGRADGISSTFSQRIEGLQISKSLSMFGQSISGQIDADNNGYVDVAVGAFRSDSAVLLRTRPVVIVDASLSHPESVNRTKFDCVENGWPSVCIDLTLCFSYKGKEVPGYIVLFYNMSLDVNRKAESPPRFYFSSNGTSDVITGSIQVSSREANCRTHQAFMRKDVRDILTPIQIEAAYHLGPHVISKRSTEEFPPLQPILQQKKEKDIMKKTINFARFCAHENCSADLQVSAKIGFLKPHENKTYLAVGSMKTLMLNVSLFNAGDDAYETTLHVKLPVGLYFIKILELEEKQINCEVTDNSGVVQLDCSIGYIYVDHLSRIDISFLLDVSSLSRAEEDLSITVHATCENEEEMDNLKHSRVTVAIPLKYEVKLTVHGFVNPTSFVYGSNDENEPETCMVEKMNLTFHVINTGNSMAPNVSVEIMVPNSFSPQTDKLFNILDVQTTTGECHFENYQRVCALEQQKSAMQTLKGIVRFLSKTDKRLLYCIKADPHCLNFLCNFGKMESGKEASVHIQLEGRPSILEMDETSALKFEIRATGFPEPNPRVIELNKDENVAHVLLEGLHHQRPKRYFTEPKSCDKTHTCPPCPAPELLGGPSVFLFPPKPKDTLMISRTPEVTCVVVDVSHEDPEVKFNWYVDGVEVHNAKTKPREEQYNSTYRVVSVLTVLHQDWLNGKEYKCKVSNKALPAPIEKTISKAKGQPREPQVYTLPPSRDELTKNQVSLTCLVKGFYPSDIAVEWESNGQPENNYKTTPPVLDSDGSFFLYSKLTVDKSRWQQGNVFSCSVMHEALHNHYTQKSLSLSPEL
Chain of VLA-4-IgG chimeric protein (P05556 with tags, fused parts or gaps limits assumed): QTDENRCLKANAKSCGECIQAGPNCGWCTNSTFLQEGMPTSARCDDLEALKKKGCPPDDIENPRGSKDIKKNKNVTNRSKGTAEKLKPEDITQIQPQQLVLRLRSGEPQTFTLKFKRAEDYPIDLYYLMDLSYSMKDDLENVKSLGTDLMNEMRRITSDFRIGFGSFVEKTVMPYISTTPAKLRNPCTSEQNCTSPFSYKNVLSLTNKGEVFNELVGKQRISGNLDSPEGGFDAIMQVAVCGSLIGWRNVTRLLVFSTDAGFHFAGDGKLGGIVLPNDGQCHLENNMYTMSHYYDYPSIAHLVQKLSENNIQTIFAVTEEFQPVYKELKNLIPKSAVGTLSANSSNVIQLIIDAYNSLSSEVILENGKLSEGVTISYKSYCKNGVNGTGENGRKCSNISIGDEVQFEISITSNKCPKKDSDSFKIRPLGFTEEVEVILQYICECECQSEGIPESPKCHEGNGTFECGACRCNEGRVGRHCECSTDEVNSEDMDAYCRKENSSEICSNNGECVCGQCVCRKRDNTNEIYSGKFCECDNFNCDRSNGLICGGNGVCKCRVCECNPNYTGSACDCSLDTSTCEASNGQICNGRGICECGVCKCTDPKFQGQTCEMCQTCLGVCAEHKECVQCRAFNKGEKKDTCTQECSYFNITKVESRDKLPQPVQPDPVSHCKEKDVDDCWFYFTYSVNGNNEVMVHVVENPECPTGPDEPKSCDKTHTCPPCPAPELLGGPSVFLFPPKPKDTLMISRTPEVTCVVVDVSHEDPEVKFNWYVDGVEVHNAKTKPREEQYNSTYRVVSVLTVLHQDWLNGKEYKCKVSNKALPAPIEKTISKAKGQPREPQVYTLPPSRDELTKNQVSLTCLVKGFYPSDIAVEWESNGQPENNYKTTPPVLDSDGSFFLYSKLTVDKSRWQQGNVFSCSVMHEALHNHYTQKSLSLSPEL

| Compound | IC50 [1] [nM] | IC50 [1, 2] [nM] | also measured |
| --- | --- | --- | --- |
| CC(C)CC(C(=O)NCCCSC[C@H](NC(=O)CC(C)(C)C)C(=O)O)c1ccc(O)cc1 (stereo partly shown) [Example 19] | 500 |  |  |
| 3-((2(R)-((1-acetyl-3(R,S)-(4-hydroxyphenyl)pyrrolidin-2(R,S)-yl)carbonylamino)-2(R)-carbonylethyl)disulfanyl)-2(R)-(3,3-dimethylbutanoylamino)propionic acid [Example 74] |  | 120 |  |
| CC(C)C[C@H](NC(=O)Cc1ccc(NC(=O)Nc2ccccc2)cc1)C(=O)N[C@@H](CCSC[C@H](NC(=O)CC(C)(C)C)C(=O)O)C(=O)O [Example 176, 4-((2R)-2-(3,3-dimethylbutanoylamino)-2-carboxyethylthio)-(2S)-2-((2S)-4-methyl-2-(2-(4-((phenylamino)carbonylamino)phenyl)acetylamino)pentanoylamino)butyric acid] |  | 13 |  |
| O=C(N[C@@H](CCSC[C@H](NC(=O)c1c(Cl)cccc1Cl)C(=O)O)C(=O)O)c1c(Cl)cccc1Cl [Example 180, 4-((2R)-2-((2,6-dichlorophenyl)carbonylamino)-2-carboxyethylthio) (2S)-2-((2,6-dichlorophenyl)carbonylamino)butyric acid] |  |  | IC50 ([1]; read-out: Inhibition Activity(IC50 : nM), binding of VLA-4-IgG chimeric protein to immobilized CS-1 peptide, compound preincubated 20 minutes): 38 nM |
| CC(C)CC(C(=O)N[C@@H](CCSC[C@H](NC(=O)CC(C)(C)C)C(=O)O)C(=O)O)c1ccc(O)cc1 (stereo partly drawn) [Example 14, 4-(2(R)-carboxy-2(R)-(3,3-dimethylbutanoylamino)ethylthio)-2(S)-(2(R,S)-(4-hydroxyphenyl)-4-methylpentanoylamino) butyric acid] | 500 |  |  |
| CC(C)CC(NC(=O)CCc1ccc(CC(NC(=O)CC(C)(C)C)C(=O)O)cc1)c1ccc(O)cc1 (stereo not shown) [Example 131, 3-(4-(2-(N-(1-(4-hydroxyphenyl)-3-methylbutyl)carbamoyl)ethyl)phenyl)-2-(3,3-dimethylbutanoylamino)propionic acid] |  | 1800 |  |
| CC(C)CC(C(=O)N[C@@H](CCSC[C@H](NC(=O)C(CC(C)C)c1ccc(O)cc1)C(=O)O)C(=O)O)c1ccc(O)cc1 (stereo partly drawn) [Example 8, 4-(2(R)-carboxy-2(R)-(2(R,S)-(4-hydroxyphenyl)-4-methylpentanoylamino)ethylthio)-2(S)-(2(R,S)-(4-hydroxyphenyl)-4-methylpentanoylamino) butyric acid] | 200 |  |  |
| CC(C)C[C@H](NC(=O)Cc1ccc(NC(=O)Nc2ccccc2)cc1)C(=O)N[C@@H](Cc1ccc(CCC(=O)O)cc1)C(=O)O [Example 171, (2S)-2-((2S)-4-methyl-2-(2-(4-((phenylamino)carbonylamino)phenyl)acetylamino)pentanoylamino)-3-(4-(2-carboxyethyl)phenyl)propionic acid] |  | 780 |  |
| O=C(O)CCc1ccc(C[C@H](NC(=O)c2c(Cl)cccc2Cl)C(=O)O)cc1 [Example 161, 2(S)-2-((2,6-dichlorophenyl)carbonylamino)-3-(4-(2-carbaxyethyl)phenyl)propionic acid] | 64 |  |  |
| (2R)-3-(((2S)-1-(2-cyclohexylacetyl)pyrrolidin-2-yl)methylthio)-2-(3,3-dimethylbutanoylamino)propionic acid [Example 193] |  | 2200 |  |
| CC(C)C[C@H](OCc1ccccc1)C(=O)N[C@@H](Cc1ccc(OCC(C)(C)C)cc1)C(=O)O [Example 102, 2(S)-(4-methyl-2(S)-(phenylmethoxy)pentanoylamino)-3-(4-(2,2-dimethylpropoxy)phenyl)propionic acid] |  | 500 |  |
| COc1cccc(OC)c1C(=O)NCCCC(NC(=O)c1c(Cl)cccc1Cl)C(=O)O (stereo not shown) [Example 143, 2-((2,6-dichlorophenyl)carbonylamino)-5-((2,6-dimethoxyphenyl)carbonylamino)pentanoic acid] |  | 13 | accumulation of eosinophils to auricle induced by application of the antigen (Auricular Edema Model): inhibited; swelling of ear induced by application of the antigen (Auricular Edema Model): inhibited; accumulation of eosinophils to the lung (Mouse Asthma Model; BALF on DAY-31): inhibited; progress of airway anaphylaxis (Mouse Asthma Model; DAY-31): inhibited |
| CC(C)CC(C(=O)NC(Cc1ccc(CCC(=O)O)cc1)C(=O)O)c1ccc(O)cc1 (single isomer, unassigned) [Example 120, 3-(4-(2-carboxyethyl)phenyl)-2-(2-(4-hydroxyphenyl)-4-methylpentanoylamino)propionic acid] |  | 160 |  |
| CC(C)CC(C(=O)N[C@@H](CSSC[C@H](NC(=O)CC(C)(C)C)C(=O)O)C(=O)O)c1ccc(O)cc1 (stereo partly drawn) [Example 62, 3-((2(R)-carboxy-2(R)-(2(R,S)-(4-hydroxyphenyl)-4-methylpentanoylamino)ethyl)disulfanyl)-2(R)-(3,3-dimethylbutanoylamino)propionic acid] | 90 |  |  |
| O=C(NC(CCCCC(NC(=O)c1c(Cl)cccc1Cl)C(=O)O)C(=O)O)c1c(Cl)cccc1Cl (stereo not shown) [Example 154, 2,7-bis((2,6-dichlorophenyl)carbonylamino)octanedioic acid] |  | 430 |  |
